We go through 15 molecules from patent US5496824A, “Cyclopropane derivatives and anti-viral agent containing the same” (Ajinomoto Co., Inc., priority 1993, dated 1996).

The structures appear in SMILES notation. ≈ marks a conversion by molar mass, not a printed value.

Format in all cases: cell-based
Data set [1] has as its system varicella zoster virus (Kawaguchi strain). Put plainly: Anti-viral activity against varicella zoster virus, plaque reduction assay in human embryonic lung (HEL) cells. The settings on record: Human alphaherpesvirus 3, 72 h, 3 days, read-out: PI50 (50% plaque decrease concentration). As to the method: The activity of test compounds against varicella zoster virus was measured by plaque reduction assay. Confluent monolayers of human embryonic lung (HEL) cells grown in 6-well plates were infected with varicella zoster virus (Kawaguchi strain) in such a way that each well might have 100 plaque-forming units. After incubated at 37 C. for one hour in 5% CO2 atmosphere, the inoculum was removed and 3 ml of maintenance media containing the test compound having a varying concentration was added thereto. The incubation was continued for 3 days. After incubation, the cells were fixed and stained, the number of plaques was counted microscopically. In comparison to the control, the 50% plaque decrease concentration (PI50) of the test compound was determined. As a comparative compound, acyclovir was used.

In data set [2] the test system is HSV-1 (Tomioka strain). Put plainly: Anti-viral activity against herpes simplex virus, neutral red dye-uptake method in Vero cells. As to conditions: Human alphaherpesvirus 1, 72 h, 3 days at 37° C., read-out: ID50 (the source's name). As to the method:
(§1) The anti-viral activity of the prepared compounds against herpes simplex virus was measured by neutral red dye-uptake method (J. Infect. Dis. 148: 868 (1983)) with modification. Precisely, threefold dilutions of the compounds were prepared in 100 μl volumes of culture medium in the wells of a 96-well culture plate. Sixty microliters of a suspension of Vero cells (3×10^5 cells/ml) were then dispensed into each well. HSV-1 (Tomioka strain) was diluted in medium to approximately 100 TCID50 /40 μl, as determined by prior titration in a similar dye uptake assay, and 40 μl of viral suspension were added to the respective wells. Control wells containing no test compound and no virus (cell control) or no cells (blank control) were included in each plate. After 3 days incubation at 37° C. in 5% CO2 atmosphere, 50 μl of neutral red dye (0.15% in saline, pH 5.5) was dispensed into each well and the cultures were incubated for a further 45 min at 37° C. Unincorporated dye was removed by rinsing with PBS. The dye incorporated by viable cells was then eluted into 100 μl per well of citrate ethanol buffer (pH 4.2; equal volumes of 0.1 M Sorensen citrate buffer and ethanol), and absorbance at 540 nm of the solution was measured. […] As a comparative compound, acyclovir was used.

Data set [3] can be described thus: in vitro. As to conditions: african green monkey, vero cells. As for the experimental part: as §1

What is called CC50 is the concentration at which the toxic effect on the cells reaches its halfway point. In the case of `O=c1[nH]c(=O)n(C[C@]2(CO)C[C@@H]2CO)cc1/C=C/Br` (relative stereo) [Example 15, 1-[1'α,2'β-2-bis(hydroxymethyl)cyclopropanyl-yl]methyl-5-[(E)-2-bromoethenyl]-2,4(1H,3H)-pyrimidinedione], the IC50 in data set [1] was determined as 87 µg/mL (≈ 263 µM). In addition, the EC50 in data set [2] is 78 µg/mL (≈ 236 µM). Moreover, the CC50 at 72 h in data set [3] is over 500 µg/mL.

As for `O=c1[nH]c(=O)n(C[C@]2(CO)C[C@H]2CO)cc1F` [Example 1, 1-[1'S,2'R-bis(hydroxymethyl)-cyclopropan-1'-yl]methyl-5-fluoro-2,4(1H,3H)pyrimidinedione], in data set [1], the IC50 is over 100 µg/mL. For the same molecule, the EC50 in data set [2] was over 500 µg/mL. The molecule also yielded a 50% cytotoxic concentration (CC50) at 72 h in data set [3] of over 500 µg/mL.

As for `O=c1[nH]c(=O)n(C[C@]2(CO)C[C@H]2CO)cc1Cl` [Example 2, 1-[1'S,2'R-bis(hydroxymethyl)-cyclopropan-1'-yl]methyl-5-chloro-2,4(1H,3H)-pyrimidinedione], in data set [1], the IC50 was over 100 µg/mL. Besides, in data set [2], the EC50 was 295 µg/mL (≈ 1130 µM). In data set [3], this molecule came in with a CC50 at 72 h of over 500 µg/mL.

In the case of `O=c1[nH]c(=O)n(C[C@]2(CO)C[C@H]2CO)cc1Br` [Example 3, 1-[1'S,2'R-bis(hydroxymethyl)-cyclopropan-1'-yl]methyl-5-bromo-2,4(1H,3H)-pyrimidinedione], the IC50 in data set [1] was 97 µg/mL (≈ 318 µM). In addition, the EC50 in data set [2] stood at 215 µg/mL (≈ 705 µM). Moreover, the CC50 at 72 h in data set [3] was over 500 µg/mL.

On to `O=c1[nH]c(=O)n(C[C@]2(CO)C[C@H]2CO)cc1I` [Example 4, 1-[1'S,2'R-bis(hydroxymethyl)-cyclopropan-1'-yl]methyl-5-iodo-2,4(1H,3H)-pyrimidinedione], for which the IC50 in data set [1] came to 9.3 µg/mL (≈ 26.4 µM). Further, in data set [2], the EC50 is 90 µg/mL (≈ 256 µM). Moreover, the 50% cytotoxic concentration (CC50) at 72 h in data set [3] is over 500 µg/mL.

`O=c1[nH]c(=O)n(C[C@]2(CO)C[C@H]2CO)cc1C(F)(F)F` [Example 5, 1-[1'S,2'R-bis(hydroxymethyl)-cyclopropan-1'-yl]methyl-5-trifluoromethyl-2,4(1H,3H)-pyrimidinedione]: in data set [1], the IC50 is over 100 µg/mL. Besides, the EC50 in data set [2] is over 500 µg/mL. Moreover, in data set [3], the CC50 at 72 h was determined as 234 µg/mL (≈ 795 µM).

With `C=Cc1cn(C[C@]2(CO)C[C@H]2CO)c(=O)[nH]c1=O` [Example 6, 1-[1'S,2'R-bis(hydroxymethyl)cyclopropan-1'-yl]methyl-5-ethenyl-2,4(1H,3H)-pyrimidinedione], the IC50 in data set [1] is 11.1 µg/mL (≈ 44 µM). The EC50 in data set [2] came to 3.2 µg/mL (≈ 12.7 µM). The molecule also had a CC50 at 72 h in data set [3] of over 500 µg/mL.

For the molecule `O=c1[nH]c(=O)n(C[C@]2(CO)C[C@H]2CO)cc1/C=C/Cl` [Example 7, 1-[1'S, 2'R-bis(hydroxymethyl)-cyclopropan-1'-yl]methyl-5-[(E)-2-chloroethenyl]-2,4(1H,3H)-pyrimidinedione], the IC50 in data set [1] stood at 0.07 µg/mL (≈ 0.244 µM). The EC50 in data set [2] was found to be 4.3 µg/mL (≈ 15 µM). Moreover, the half-maximal cytotoxic concentration (CC50) at 72 h in data set [3] is over 500 µg/mL.

With `O=c1[nH]c(=O)n(C[C@]2(CO)C[C@H]2CO)cc1/C=C/Br` [Example 8, 1-[1'S,2'R-bis(hydroxymethyl)-cyclopropan-1'-yl]methyl-5-[(E)-2-bromoethenyl]-2,4(1H,3H)-pyrimidinedione], the IC50 in data set [1] was 0.031 µg/mL (≈ 0.0936 µM). In addition, in data set [2], the EC50 was 14.5 µg/mL (≈ 43.8 µM). For the same molecule, the half-maximal cytotoxic concentration (CC50) at 72 h in data set [3] is over 500 µg/mL.

Take `O=c1[nH]c(=O)n(C[C@]2(CO)C[C@H]2CO)cc1/C=C/I` [Example 10, 1-[1'S,2'R-bis(hydroxymethyl)-cyclopropan-1'-yl]methyl-5-[(E)-2-iodoethenyl]-2,4(1H,3H)-pyrimidinedione]: in data set [1], the IC50 came out at 0.054 µg/mL (≈ 0.143 µM). Also, the EC50 in data set [2] amounted to 24.6 µg/mL (≈ 65.1 µM). The molecule further had a half-maximal cytotoxic concentration (CC50) at 72 h in data set [3] of 330 µg/mL (≈ 873 µM).

As to `C#Cc1cn(C[C@]2(CO)C[C@H]2CO)c(=O)[nH]c1=O` [Example 11, 1-[1'S,2'R-bis(hydroxymethyl)-cyclopropan-1'-yl]methyl-5-ethynyl-2,4(1H,3H)-pyrimidinedione], in data set [1], the IC50 was over 100 µg/mL. Moreover, the EC50 in data set [2] is 310 µg/mL (≈ 1240 µM). Moreover, the cytotoxic concentration (CC50) at 72 h in data set [3] is over 500 µg/mL.

As for `CC#Cc1cn(C[C@]2(CO)C[C@H]2CO)c(=O)[nH]c1=O` [Example 12, 1-[1'S,2'R-bis(hydroxymethyl)-cyclopropan-1'-yl]methyl-5-(1-propynyl)-2,4(1H,3H)-pyrimidinedione], the IC50 in data set [1] was 19.8 µg/mL (≈ 74.9 µM). For the same molecule, the EC50 in data set [2] was found to be 325 µg/mL (≈ 1230 µM). In addition, in data set [3], the cytotoxic concentration (CC50) at 72 h is over 500 µg/mL.

For `CCc1cn(C[C@]2(CO)C[C@H]2CO)c(=O)[nH]c1=O` [Example 13, 1-[1'S,2'R-bis(hydroxymethyl)-cyclopropan-1'-yl]methyl-5-ethyl-2,4(1H,3H)-pyrimidinedione], the IC50 in data set [1] is 95 µg/mL (≈ 374 µM). In addition, the EC50 in data set [2] came to 24.3 µg/mL (≈ 95.6 µM). Moreover, the cytotoxic concentration (CC50) at 72 h in data set [3] is over 500 µg/mL.

For `O=c1[nH]c(=O)n(C[C@@]2(CO)C[C@@H]2CO)cc1/C=C/Br` [Example 14, 1-[1'R,2'S-bis(hydroxymethyl)-cyclopropan-1'-yl]methyl-5-[(E)-2-bromoethenyl]-2,4(1H,3H)-pyrimidinedione], the IC50 in data set [1] is 7.4 µg/mL (≈ 22.3 µM). In addition, in data set [2], the EC50 was over 500 µg/mL. Further, the CC50 at 72 h in data set [3] was over 500 µg/mL.

Turning to `Nc1nc2c(ncn2COCCO)c(=O)[nH]1` [acyclovir, reference compound], in data set [2], the EC50 stood at 0.8 µg/mL (≈ 3.55 µM). In data set [3], this molecule came in with a half-maximal cytotoxic concentration (CC50) at 72 h of over 500 µg/mL.
